What is called solubility is the dissolved amount per volume that the medium holds. Higher therefore signals a readily soluble substance.

The record followed here is US20030153585A1, “Pharmaceutical preparations containing 2-pyrrolidone as the dissolving intermediary” (priority 2000, published 2003).

Converted amounts (≈) assume the structure as drawn.

This data set is described as follows: physchem. The settings on record: water.

In turn, `COc1ccc(C(=O)N2CCCc3cc(C4=NNC(=O)SC4C)ccc32)cc1OC` (stereo not shown) [thiadiazinone, 5-[1-(3,4-dimethoxybenzoyl)-1,2,3,4-tetrahydroquinolin-6-yl]-6-methyl-3,6-dihydro-1,3,4-thiadiazin-2-one] showed a solubility of 2 µg/mL (≈ 4.7 µM).
